Assays:
CT-DNA = experiment: DNA binding by cyclic voltammetry; parameters: species or system calf thymus; conditions: for K[red]/K[oxi], (calcd): Nernst equation; for K[red]/K[oxi], found (I): from method I; for S (bp), binding site size: method II; for Kb method I, (oxi): oxidation; for Kb method I, red: reduction; for Es° = (Eb° − Ef°): shift of formal potential on DNA binding
Method: The CV titration for free substances was conducted at 10 μM at 25°C in the presence of Tris-HCl buffer solution (pH: 7.4). While CT-DNA increases (0–10 μM) in each sample solution, a shift in potential, including variations in the peak currents of anodic and cathodic sides, has been monitored.
The CV technique is one of the most important tools for investigating the DNA-complex adduct's binding mechanism. The CV properties of all test samples in the presence and absence of DNA were executed at a scan rate (v) 0.1 Vs^−1 with a potential range of +2 to −2 in a Tris-HCl (5 mM)/NaCl (50 mM) (pH = 7.2) solution. The M^1+/M^2+ redox couple is caused by complexes that reveal a single anodic and cathodic peak. […] (Figure S29 and Table 6).
ΔEP is peak-to-peak separation = (EPa − EPc); E°(or) E1/2 is denoted as formal electrode potential = 1/2 (EPa + EPc); Es°=(Eb° − Ef°)Eb° and Ef° are represented as the formal electrode potential of the M^1+/M^2+ couple in the bound and free forms, respectively. Es° = +19 mV (HL), +34 mV (1a), and +31 mV (2a). Ipa is anodic peak current, Ipc is cathodic peak current. K^1+ is binding constant of reduction process, K^2+ is binding constant of oxidation process, S is represented as binding site size of base pairs (bp) with a molecule of complex, Scan rate is 100 mV·s^−1, binding constant (Kb) values observed from the linear plots of log (1/[DNA]) vs. log (I/I0 − I) for oxidation and reduction, (I0 − IDNA)/IDNA = Cp/Cf versus [DNA] and Ip ^2 versus (Ipo ^2 −Ip ^2 )/[DNA] by methods I, II, and III, respectively.(24) DiffusioncoefficientD0=7.51×10^−5 SlopelogI0 −I/I=log DNA+logKb, where I0 and I are represented as the peak currents of the compound in the absence and presence of DNA.(25) log DNA=logI0 −I/I+log1/Kb log1/DNA=logI/I0−I+logKb, (26) I0 −I/I=KbDNA, (27) I0 −I/I=Cb/Cf, where Cf and Cb are denoted as the free substance concentration and DNA-interacted compound, respectively. (29) was obtained by comparing equations (27) and (28).(28) Cb/Cf=KbDNA, (29) Cb/Cf=Kbfreebasrpairs/S , (30) Cb/Cf=KbDNA/2 S +1.
S is denoted as binding site size (bp), and Kb are estimated from (31) with the help of S = (intercept/4)^1/2 and (Kb = 2S (slope/intercept), respectively. Nernst equations are as follows:(31) Es°=Eb°−Ef°=0.0591 /n logKred/Koxi, (32) Kred/Koxi=Ant. log nEb°−Ef°/0.0591.
E 1/2 or Eb° and Ef° are the formal electrode potentials of the M^1+/M^2+ couple in their bound and free forms, respectively.(33) Ip 2 =1/KbDNAIp0 2 −Ip 2 +Ip0 2 −DNA, where Ipo and Ip are denoted as the peak currents of the complexes (1–3) in the absence and presence of DNA.(34) Ipa=2.69×10^5 n^3/2 α^1/2 AC0 ∗D0 1/2 v^1/2 , (35) Ipa=13314.7D0 1/2 v^1/2 , where Ipa is denoted as the anodic peak current in amperes, n is represented as the number of electrons participating in the redox (M^1+/M^2+) process (n = 1), charge transfer coefficient (or) activation coefficient (α)≈0.5 for quasireversible systems, which also calculated from Bard–Faulkner relation(35a) α=47.7/EPa−EP/2.
C0^∗ ⟶ Bulk concentration of the compound, A is denoted as the cross-sectional area of the working electrode (glassy carbon) in cm^2 (A∼0.07 cm^2), D0 is denoted as diffusion coefficient (cm^2 s^−1) of the M^1+/M^2+ couple in the free and bound forms, respectively, and v is denoted as the potential scan rate at 0.1 Volt·s^−1. While the substances often bind to deoxyribonucleic acid through intercalation, the peak potential shifts in a positive direction. When the compounds bind to deoxyribonucleic acid via minor or major grooves or electrostatic attractions, the peak potential shifts occur in a negative direction. […]

[1] = DPPH radical scavenging assay; format: biochemical; conditions: for % Inhibition DPPH: 517 nm
Method: (§1) All samples were evaluated for their scavenging ability with the help of UV-visible spectrophotometer at different concentrations of 40, 80, 120, 160, 200, and 240 μM [6, 28]. While performing the antioxidant properties for the DPPH, hydroxyl, superoxide, and nitric oxide radical scavenging, the absorbance at 517, 230, 590, and 546 nm, respectively, was closely observed. In addition, the observed IC50 values of all samples were compared with ascorbic acid.
The colour of an aqueous or methanol solution changes from deep purple to pale yellow when DPPH, a stable chromogen free radical, combines with an antioxidant molecule, which means that DPPH quickly absorbs the hydrogen or electrons from the donor groups. In this case, for the baseline correction, a blank DPPH solution in the absence of a test compound was employed, and 517 nm (ε = 8320 M^−1·cm^−1) was attained to have a significant absorption maximum. […] The DPPH radicals are reduced by an antioxidant compound (AH), in which the reduction of electronic absorbance for each compound was vigilantly noted at 517 nm. The capacity to block radicals improves as the sample concentration increases. The assessed percentage of maximum inhibition for all substances was found at 240 μM in the subsequent order: (ascorbic acid) (85.65) > (1a) 68.64 > (2a) 59.55 > (HL) 52.45. […] Moreover, the % of scavenging or maximum inhibition for all substances is estimated with the aid of equation (44) (Table S14).(43) Scavanging%=A0−AS/A0×100

[2] = Hydroxyl radical scavenging assay; format: biochemical; conditions: for % Inhibition hydroxyl radical: 230 nm
Method: as §1
Hydrogen peroxide receives electrons from antioxidant molecules and then neutralizes them into a water molecule. ^●OH inhibition capability was determined from the % of inhibition for all test substances at 230 nm.

SMILES | Kb method II (CT-DNA) [M⁻¹] | Kb method III (CT-DNA) [M⁻¹] | K[red]/K[oxi], (calcd) (CT-DNA) | K[red]/K[oxi], found (I) (CT-DNA) | S (bp), binding site size (CT-DNA) [bp] | Kb method I, (oxi) (CT-DNA) [M⁻¹] | Kb method I, red (CT-DNA) [M⁻¹] | Es° = (Eb° − Ef°) (CT-DNA) | % Inhibition DPPH ([1]; 40 µM) [%] | % Inhibition DPPH ([1]; 80 µM) [%] | % Inhibition DPPH ([1]; 120 µM) [%] | % Inhibition DPPH ([1]; 160 µM) [%] | % Inhibition DPPH ([1]; 200 µM) [%] | % Inhibition DPPH ([1]; 240 µM) [%] | % Inhibition hydroxyl radical ([2]; 40 µM) [%] | % Inhibition hydroxyl radical ([2]; 80 µM) [%] | % Inhibition hydroxyl radical ([2]; 120 µM) [%] | % Inhibition hydroxyl radical ([2]; 160 µM) [%] | % Inhibition hydroxyl radical ([2]; 200 µM) [%] | % Inhibition hydroxyl radical ([2]; 240 µM) [%] | other results
[O-]c1ccccc1N=Cc1ccc(N2CCOCC2)cc1.[O-]c1ccccc1N=Cc1ccc(N2CCOCC2)cc1.[Zn+2].c1ccc(-c2ccccn2)nc1 [(2a), [Zn(L)2(bpy)]] | 27693 | 18486 | 3.34 | 0.8268 | 0.270 | 24610 | 20348 | +31 mV | 12.75 | 24.73 | 30.02 | 39.68 | 48.79 | 59.55 | 08.25 | 16.86 | 25.78 | 34.66 | 45.78 | 56.14 | 
Oc1ccccc1N=Cc1ccc(N2CCOCC2)cc1 [(HL), 2-(4-morpholinobenzylideneamino)phenol] | 2443 | 4837 | 2.0964 | 0.7214 | 0.452 | 5280 | 3809 | +19 mV | 09.45 | 15.21 | 26.36 | 34.56 | 39.41 | 52.45 | 07.26 | 14.43 | 25.52 | 33.86 | 40.73 | 50.68 | 
[Cu+2].[O-]c1ccccc1N=Cc1ccc(N2CCOCC2)cc1.[O-]c1ccccc1N=Cc1ccc(N2CCOCC2)cc1.c1ccc(-c2ccccn2)nc1 [(1a), [Cu(L)2(bpy)]] | 70773 | 21567 | 3.76 | 0.8628 | 0.123 | 25330 | 21854 | +34 mV | 17.53 | 30.62 | 35.74 | 51.72 | 57.95 | 68.64 | 09.16 | 18.23 | 32.22 | 40.12 | 51.14 | 61.10 | IC50 [1]: 160 µM; IC50 [2]: 200 µM

Reference: paper PMC9763021, “Comprehensive Assessment of Biomolecular Interactions of Morpholine-Based Mixed Ligand Cu(II) and Zn(II) Complexes of 2,2′-Bipyridine as Potential Anticancer and SARS-CoV-2 Agents: A Synergistic Experimental and Structure-Based Virtual Screening” (Bioinorganic Chemistry and Applications, 2022)
